Test results published in paper PMC7031696 (Cell chemical biology, 2019).
Read-outs that look alike come from different tables or passages of the source.

What was measured:
[1] = test system: 3D7-MR4 trophozoite parasite-infected RBCs; assay: Metabolomic profiling (hydrophilic metabolite changes, UHPLC-MS); type: cell-based, Plasmodium falciparum
[2] = test system: asynchronous 3D7-A10 parasite cultures; assay: Standard 72-h exposure asexual blood stage susceptibility assay (IC50^72h); type: cell-based, Plasmodium falciparum; settings: Plasmodium falciparum, 3D7, 72 h, read-out: Overall (72hr assay) Mean IC50 (IC50^72h)
[3] = test system: Plasmodium falciparum 3D7-A10 parasites; assay: Stage specificity assay (8-h exposure of synchronized stages, IC50^8h); type: cell-based; settings: for IC50: Plasmodium falciparum

With `O=C(Nc1ccsc1C(=O)NC1CCCCC1)c1ccc(F)cc1` [MMV665939] the “Log2(fold changes) 3-phosphoglycerate” value ([1]; metabolite 3-phosphoglycerate, log2 fold change) was -0.3920, the “Log2(fold changes) 4-Pyridoxic acid” value ([1]; metabolite 4-Pyridoxic acid, log2 fold change) was -0.0874 and the “Log2(fold changes) 4-aminobutyrate” value ([1]; metabolite 4-aminobutyrate, log2 fold change) was -0.3253. For the same compound, the “Log2(fold changes) 4-phosphopantetheine” value ([1]; metabolite 4-phosphopantetheine, log2 fold change) was 0.0000, the “Log2(fold changes) 4-phosphopantothenate” value ([1]; metabolite 4-phosphopantothenate, log2 fold change) was -0.8024 and the “Log2(fold changes) 5-aminopentanoic acid” value ([1]; metabolite 5-aminopentanoic acid, log2 fold change) was 0.0000. For the same compound, the “Log2(fold changes) 5-methyl-THF” value ([1]; metabolite 5-methyl-THF, log2 fold change) was 0.0000, the “Log2(fold changes) 5-phosphoribosyl-1-pyrophosphate” value ([1]; metabolite 5-phosphoribosyl-1-pyrophosphate, log2 fold change) was 0.0000 and the “Log2(fold changes) 6-phospho-D-gluconate” value ([1]; metabolite 6-phospho-D-gluconate, log2 fold change) was -0.2234. For the same compound, the “Log2(fold change) HVDD” value ([1]; metabolite HVDD) was -0.9968, the “Log2(fold change) Hydroxyisocaproic acid” value ([1]; metabolite Hydroxyisocaproic acid) was 0.0000 and the “Log2(fold change) IDP” value ([1]; metabolite IDP) was 0.0000. The “Log2(fold change) IMP” value ([1]; metabolite IMP) was 0.0265, the “Log2(fold change) Inositol” value ([1]; metabolite Inositol) was 0.0000 and the “Log2(fold change) Isopentyl-PP” value ([1]; metabolite Isopentyl-PP) was -0.3712. The “Log2(fold change) L-arginino-succinate” value ([1]; metabolite L-arginino-succinate) was -0.4465, the “Log2(fold change) LD” value ([1]; metabolite LD) was -0.2140 and the “Log2(fold change) Myristoyl/tetradecanoyl-CoA” value ([1]; metabolite Myristoyl/tetradecanoyl-CoA) was 0.0000. The “Log2(fold change) N-Acetyl-L-alanine” value ([1]; metabolite N-Acetyl-L-alanine) was 1.1605, the “Log2(fold change) N-acetyl-L-ornithine” value ([1]; metabolite N-acetyl-L-ornithine) was -0.6303 and the “Log2(fold change) N-acetyl-glucosamine-1/6-phosphate” value ([1]; metabolite N-acetyl-glucosamine-1/6-phosphate) was 0.0837. The “Log2(fold change) N-acetyl-glutamate” value ([1]; metabolite N-acetyl-glutamate) was -0.0309, the “Log2(fold change) N-acetyl-glutamine” value ([1]; metabolite N-acetyl-glutamine) was 0.1208 and the “Log2(fold change) N-carbamoyl-L-aspartate” value ([1]; metabolite N-carbamoyl-L-aspartate) was 0.2551. For the same compound, the “Log2(fold change) NAD+” value ([1]; metabolite NAD+) was -0.2042, the “Log2(fold change) NADH” value ([1]; metabolite NADH) was 0.1443 and the “Log2(fold change) NADP+” value ([1]; metabolite NADP+) was -0.0542. For the same compound, the “Log2(fold change) NADPH” value ([1]; metabolite NADPH) was 0.2171, the “Log2(fold change) O-acetyl-L-serine” value ([1]; metabolite O-acetyl-L-serine) was -0.2734 and the “Log2(fold change) Octoluse 8/1P” value ([1]; metabolite Octoluse 8/1P) was -0.3337. For the same compound, the “Log2(fold change) Octoluse Bisphosphate” value ([1]; metabolite Octoluse Bisphosphate) was -0.2536, the “Log2(fold change) PD” value ([1]; metabolite PD) was -0.8727 and the “Log2(fold change) PE” value ([1]; metabolite PE) was -0.7610. The “Log2(fold change) PEE” value ([1]; metabolite PEE) was -0.6388, the “Log2(fold change) PEEK” value ([1]; metabolite PEEK) was -0.8443 and the “Log2(fold change) PVNF” value ([1]; metabolite PVNF) was -0.9198. The “Log2(fold change) Pyroglutamic acid” value ([1]; metabolite Pyroglutamic acid) was 0.4907, the “Log2(fold change) Pyrophosphate” value ([1]; metabolite Pyrophosphate) was 0.0000 and the “Log2(fold change) Ribose-5-phosphate” value ([1]; metabolite Ribose-5-phosphate) was -0.6260. For the same compound, the “Log2(fold change) S-adenosyl-L-homocysteine” value ([1]; metabolite S-adenosyl-L-homocysteine) was 0.0358, the “Log2(fold change) S-adenosyl-L-methioninamine” value ([1]; metabolite S-adenosyl-L-methioninamine) was -2.1855 and the “Log2(fold change) S-adenosyl-L-methionine” value ([1]; metabolite S-adenosyl-L-methionine) was 0.0000. For the same compound, the “Log2(fold change) S-methyl-5'-thioadenosine” value ([1]; metabolite S-methyl-5'-thioadenosine) was 0.4868, the “Log2(fold change) SD” value ([1]; metabolite SD) was -0.5679 and the “Log2(fold change) SDL” value ([1]; metabolite SDL) was 0.0000. For the same compound, the “Log2(fold change) SID” value ([1]; metabolite SID) was -0.5481, the “Log2(fold change) Sedoheptulose bisphosphate” value ([1]; metabolite Sedoheptulose bisphosphate) was -0.1986 and the “Log2(fold change) Thiamine pyrophosphate” value ([1]; metabolite Thiamine pyrophosphate) was -0.1355. The “Log2(fold changes) UDP-D-glucose” value ([1]; metabolite UDP-D-glucose, log2 fold change) was 0.0446, the “Log2(fold changes) UDP-D-glucuronate” value ([1]; metabolite UDP-D-glucuronate, log2 fold change) was -0.0014 and the “Log2(fold changes) UDP-N-acetyl-glucosamine” value ([1]; metabolite UDP-N-acetyl-glucosamine, log2 fold change) was -0.0268. For the same compound, the “Log2(fold changes) UDP” value ([1]; metabolite UDP, log2 fold change) was -0.1898, the “Log2(fold changes) UMP” value ([1]; metabolite UMP, log2 fold change) was -0.0875 and the “Log2(fold changes) UTP” value ([1]; metabolite UTP, log2 fold change) was 0.0000. For the same compound, the “Log2(fold change) hydroxyphenylpyruvate” value ([1]; metabolite hydroxyphenylpyruvate) was 0.0000, the “Log2(fold change) hydroxyproline/Aminolevulinate” value ([1]; metabolite hydroxyproline/Aminolevulinate) was -0.3323 and the “Log2(fold change) hypoxanthine” value ([1]; metabolite hypoxanthine) was -0.1428. The “Log2(fold change) indole” value ([1]; metabolite indole) was 0.0000, the “Log2(fold change) inosine” value ([1]; metabolite inosine) was -0.4892 and the “Log2(fold change) isoleucine” value ([1]; metabolite isoleucine) was 0.0000. For the same compound, the “Log2(fold change) lactate” value ([1]; metabolite lactate) was -0.3845, the “Log2(fold change) leucine” value ([1]; metabolite leucine) was 0.0000 and the “Log2(fold change) lysine” value ([1]; metabolite lysine) was -0.8365. The “Log2(fold change) malate” value ([1]; metabolite malate) was -0.6264, the “Log2(fold change) maleic acid” value ([1]; metabolite maleic acid) was -0.6374 and the “Log2(fold change) methionine” value ([1]; metabolite methionine) was -0.3116. For the same compound, the “Log2(fold change) myo-inositol” value ([1]; metabolite myo-inositol) was -0.4650, the “Log2(fold change) nicotinamide mononucleotide” value ([1]; metabolite nicotinamide mononucleotide) was -0.2358 and the “Log2(fold change) nicotinate” value ([1]; metabolite nicotinate) was 0.0360. For the same compound, the “Log2(fold change) ornithine” value ([1]; metabolite ornithine) was -0.4311, the “Log2(fold change) orotate” value ([1]; metabolite orotate) was -0.0365 and the “Log2(fold change) orotidine-5'-phosphate” value ([1]; metabolite orotidine-5'-phosphate) was -0.4342. The “Log2(fold change) oxaloacetate” value ([1]; metabolite oxaloacetate) was -0.0755, the “Log2(fold change) p-aminobenzoate” value ([1]; metabolite p-aminobenzoate) was 0.0000 and the “Log2(fold change) p-hydroxybenzoate” value ([1]; metabolite p-hydroxybenzoate) was 0.0000. For the same compound, the “Log2(fold change) pantothenate” value ([1]; metabolite pantothenate) was -0.2337, the “Log2(fold change) phenylalanine” value ([1]; metabolite phenylalanine) was -0.4167 and the “Log2(fold change) phenylpyruvate” value ([1]; metabolite phenylpyruvate) was 0.0000. The “Log2(fold change) phosphoenolpyruvate” value ([1]; metabolite phosphoenolpyruvate) was -0.3202, the “Log2(fold change) prephenate” value ([1]; metabolite prephenate) was -0.6614 and the “Log2(fold change) proline” value ([1]; metabolite proline) was -0.2978. The “Log2(fold change) pyridoxine” value ([1]; metabolite pyridoxine) was -0.1996, the “Log2(fold change) pyruvate” value ([1]; metabolite pyruvate) was -0.7329 and the “Log2(fold change) riboflavin” value ([1]; metabolite riboflavin) was 0.5336. For the same compound, the “Log2(fold change) ribose” value ([1]; metabolite ribose) was -0.3218, the “Log2(fold change) ribose-phosphate” value ([1]; metabolite ribose-phosphate) was -0.6165 and the “Log2(fold change) ribulose-5-phosphate” value ([1]; metabolite ribulose-5-phosphate) was -0.5816. For the same compound, the “Log2(fold change) serine” value ([1]; metabolite serine) was -0.3504, the “Log2(fold change) sn-glycerol-3-phosphate” value ([1]; metabolite sn-glycerol-3-phosphate) was -0.3556 and the “Log2(fold change) succinate/Methylmalonic acid” value ([1]; metabolite succinate/Methylmalonic acid) was -0.3870. The “Log2(fold change) succinyl-CoA/methylmalonyl-CoA” value ([1]; metabolite succinyl-CoA/methylmalonyl-CoA) was 0.0000, the “Log2(fold change) taurine” value ([1]; metabolite taurine) was -0.0411 and the “Log2(fold change) thiamine” value ([1]; metabolite thiamine) was -0.2425. For the same compound, the “Log2(fold change) threonine/homoserine” value ([1]; metabolite threonine/homoserine) was -0.2222, the “Log2(fold change) thymidine” value ([1]; metabolite thymidine) was 0.0000 and the “Log2(fold changes) thymine” value ([1]; metabolite thymine, log2 fold change) was 0.0000. For the same compound, the “Log2(fold changes) trehalose-6-Phosphate” value ([1]; metabolite trehalose-6-Phosphate, log2 fold change) was 0.0000, the “Log2(fold changes) tryptophan” value ([1]; metabolite tryptophan, log2 fold change) was -1.0924 and the “Log2(fold changes) tyrosine” value ([1]; metabolite tyrosine, log2 fold change) was -0.3159. The “Log2(fold changes) uridine” value ([1]; metabolite uridine, log2 fold change) was 0.0000, the IC50 [2] was 0.478 µM and the “Ratio lowest IC50 8hr/IC50 72hr” value ([3]; 3D7-A10) was 28.2. The IC50 ([3]; 3D7, read-out: Early rings Mean IC50 (IC50^8h), 8-h exposure 0–8 hr, 3D7-A10, survival at 60 h) was 17 µM, the IC50 ([3]; 3D7, read-out: Early trophozoites Mean IC50 (IC50^8h), 8-h exposure 16–24 hr, 3D7-A10, survival at 60 h) was 13.5 µM and the IC50 ([3]; 3D7, read-out: Late rings Mean IC50 (IC50^8h), 8-h exposure 8–16 hr, 3D7-A10, survival at 60 h) was 22.9 µM. The IC50 ([3]; 3D7, read-out: Late trophozoites Mean IC50 (IC50^8h), 8-h exposure 24–32 hr, 3D7-A10, survival at 60 h) was 39 µM, the IC50 ([3]; 3D7, read-out: Schizonts Mean IC50 (IC50^8h), 8-h exposure 32–40 hr, 3D7-A10, survival at 60 h) was 54.4 µM and the “IC50^8h relative to IC50^72h value” ([3]; most susceptible stages) was greater than 28 fold.
